{
  "source": "patent US11767330B2",
  "about": "“Citrate salt, pharmaceutical compositions, and methods of making and using the same” (Foghorn Therapeutics Inc., priority 2021, dated 2023)",
  "key": {"[1]": {"test_system": "SYO-1 human biphasic synovial sarcoma tumor cells", "experiment": "SYO-1 xenograft tumor growth (Example 11)", "type": "in vivo", "conditions": "1 mg/kg, i.p., daily, 3 weeks, NOD SCID mice", "procedure": "Method: NOD SCID mice (Beijing Anikeeper Biotech, Beijing) were inoculated subcutaneously on the right flank with the single cell suspension of SYO-1 human biphasic synovial sarcoma tumor cells (5×106) in 100 μL Dulbecco's Modified Eagle Medium (DMEM) with 10% fetal bovine serum (FBS). The mice were randomized into either control group [10% dimethyl sulfoxide (DMSO), 40% polyethylene glycol (PEG400) and 50% water], or treatment group D1 when the mean tumor size reached about 117 mm^3. Mice were dosed daily through intraperitoneal (i.p.) route over the course of 3 weeks. All dose volumes were adjusted by body weights in terms of mg/kg."}, "BRD9": {"molecular_target": "T1, BRD9 (Homo sapiens, UniProt Q9H8M2)", "T1 sequence (Q9H8M2 1-597)": "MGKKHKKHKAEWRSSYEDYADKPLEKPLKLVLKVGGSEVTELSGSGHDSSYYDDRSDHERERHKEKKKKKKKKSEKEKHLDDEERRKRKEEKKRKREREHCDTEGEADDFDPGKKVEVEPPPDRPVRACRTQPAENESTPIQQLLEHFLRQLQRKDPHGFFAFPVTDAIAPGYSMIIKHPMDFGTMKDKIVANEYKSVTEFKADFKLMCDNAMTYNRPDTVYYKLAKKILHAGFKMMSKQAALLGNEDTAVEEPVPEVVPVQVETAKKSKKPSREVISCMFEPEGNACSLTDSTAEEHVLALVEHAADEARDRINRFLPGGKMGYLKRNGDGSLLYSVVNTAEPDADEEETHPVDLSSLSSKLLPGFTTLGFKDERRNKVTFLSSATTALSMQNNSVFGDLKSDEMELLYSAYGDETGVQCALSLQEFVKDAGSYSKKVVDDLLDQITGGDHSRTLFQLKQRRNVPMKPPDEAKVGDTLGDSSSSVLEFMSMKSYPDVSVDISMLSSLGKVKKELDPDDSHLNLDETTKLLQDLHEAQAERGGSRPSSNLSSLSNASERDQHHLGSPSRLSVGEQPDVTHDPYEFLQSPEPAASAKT", "experiment": "BRD9 degradation in synovial sarcoma tumor in vivo, western blot (Example 12)", "set-up": "Tumors were lysed with 1×RIPA lysis buffer; from tissue; host or cells: SYO-1 xenograft tumours in BALB/c Nude mice; species or system mice", "conditions": "1 mg/kg, i.p., 4 weeks; tumors 8, 72, 168 hours post last dose", "procedure": "Method: Mice were treated with D1, 1 mg/kg, i.p. for 4 weeks. Mice were then euthanized, and tumors were collected at 8 hours, 72 hours, and 168 hours post last dose. Tumors were lysed with 1×RIPA lysis buffer (Boston BioProducts, BP-115D) with protease and phosphatase protein inhibitor (Roche Applied Science #04906837001 & 05892791001). Equal amounts of lysate (30 μg) were loaded in 4-12% Bis-Tris Midi Protein Gels in 1×MOPS buffer; samples ran at 120 V for 120 minutes. Protein was transferred to membrane with TransBlot at 250 mA for 150 minutes, and then membranes were blocked with Odyssey blocking buffer for 1 hour at room temperature. Membranes were hybridized overnight in cold room with primary antibodies. Images acquired using Li—COR imaging system (Li—COR Biotechnology, Lincoln, Nebr.)."}},
  "note": "“Also recorded” adds a separate entry of the source.",
  "data": [
    {"smiles": "COc1cc(-c2cn(C)c(=O)c3cnc(N4CCC4)cc23)cc(OC)c1CN1CCC(CN2CCC3(CC2)CN(c2ccc4c(c2)C(=O)N(C2CCC(=O)NC2=O)C4)C3)CC1", "note": "(racemic) [Compound D1, 3-[6-(7-[[1-([4-[6-(azetidin-1-yl)-2-methyl-1-oxo-2,7-naphthyridin-4-yl]-2,6-dimethoxyphenyl]methyl)piperidin-4-yl]methyl]-2,7-diazaspiro[3.5]nonan-2-yl)-1-oxo-3H-isoindol-2-yl]piperidine-2,6-dione]", "values": [
      {"measurement": "tumor growth", "setting": "[1]", "value": "tumor growth inhibition"},
      {"measurement": "BRD9 level in tumor (western blot)", "setting": "BRD9", "value": "BRD9 inhibition; also recorded: complete degradation of BRD9 target up to 168 hours after dose"}
    ]}
  ]
}
